Test results from patent US11524096B2, “Wetting agent formulation” (TELEFLEX LIFE SCIENCES PTE. LTD., priority 2016, dated 2022).

Columns and labels:
[1] = Relative dissolution of propyl gallate depending on sequence of mixing steps; type: physicochemical
Source text: In the case where glycerol is employed, it may be necessary to add some heat to the solution in order to achieve full dissolution of the propyl gallate. Further, the sequence of the mixing steps and its effect on the relative dissolution of propyl gallate when all component concentrations and temperature are kept constant, is as follows: • Addition of propylene glycol to propyl gallate, then addition of saline or distilled water: fast reaction (high rate of dissolution of propyl gallate); • Addition of saline/distilled water to propyl gallate, then addition of propylene glycol: slow reaction (low rate of dissolution of propyl gallate); • Addition of propylene glycol to saline/distilled water, then addition of propyl gallate: fast reaction (high rate of dissolution of propyl gallate); • Employing glycerol instead of propylene glycol: slow reaction (low rate of dissolution of propyl gallate).

[2] = without propylene glycol; cited from earlier work

CCCOC(=O)c1cc(O)c(O)c(O)c1 [PG, propyl 3,4,5-trihydroxybenzoate]
rate of dissolution of propyl gallate ([1]; Addition of propylene glycol to propyl gallate, then addition of saline or distilled water, concentrations and temperature constant): fast reaction | rate of dissolution of propyl gallate ([1]; Addition of propylene glycol to saline/distilled water, then addition of propyl gallate): fast reaction | rate of dissolution of propyl gallate ([1]; Addition of saline/distilled water to propyl gallate, then addition of propylene glycol): slow reaction | rate of dissolution of propyl gallate ([1]; Employing glycerol instead of propylene glycol): slow reaction | solubility in water (in words) [2]: only slightly soluble
